Data on 13 compounds can be found in ChEMBL document CHEMBL1128012, “Non-peptide-based inhibitors of human immunodeficiency virus-1 protease” (Bioorg Med Chem Lett, 1994).

The target of the first test is T1, Human immunodeficiency virus type 1 protease (Human immunodeficiency virus 1, UniProt Q72874). Nature of the test: Inhibitory activity was evaluated against HIV-1 protease; Not Active.
As to `COP1(=O)C(Cc2ccccc2)N(Cc2ccccc2)C(=O)N(Cc2ccccc2)C1Cc1ccccc1` (stereo not drawn), the IC50 (commonly the midpoint of a concentration-inhibition curve) was “Not Active”. The same measure, in the same setting: next, `COP1(=O)C(Cc2ccccc2)NC(=O)NC1Cc1ccccc1` (stereo not drawn): “Not Active”. Consider `COP1(=O)C(Cc2ccccc2)N(Cc2ccc(CBr)cc2)C(=O)N(Cc2ccc(CBr)cc2)C1Cc1ccccc1` (stereo not drawn), for which the IC50 result is “Not Active”. Still for that read-out and setting: next, `COP1(=O)C(Cc2ccccc2)N(Cc2ccc3ccccc3c2)C(=O)N(Cc2ccc3ccccc3c2)C1Cc1ccccc1` (stereo not drawn): “Not Active”; `COP1(=O)C(Cc2ccccc2)N(Cc2ccc(CO)cc2)C(=O)N(Cc2ccc(CO)cc2)C1Cc1ccccc1` (stereo not drawn): “Not Active”.

The target in a further test is T1, Human immunodeficiency virus type 1 protease. Description: Inhibitory activity was evaluated against HIV-1 protease.
As for `O=C1N(Cc2ccc(CBr)cc2)C(Cc2ccccc2)P(=O)(O)C(Cc2ccccc2)N1Cc1ccc(CBr)cc1` (stereo not drawn), the IC50 is 18 µM.

Consider `O=C1N(Cc2ccccc2)C(Cc2ccccc2)P(=O)(O)C(Cc2ccccc2)N1Cc1ccccc1` (stereo not drawn), for which the IC50 was determined as 21 µM. This IC50 and that of the compound before are within 1.5-fold of each other.

`O=C1N(Cc2ccc(CO)cc2)C(Cc2ccccc2)P(=O)(O)C(Cc2ccccc2)N1Cc1ccc(CO)cc1` (stereo not drawn) came in with an IC50 of 4.8 µM. The same measure, in the same setting: next, `O=C1NC(Cc2ccccc2)P(=O)(O)C(Cc2ccccc2)N1` (stereo not drawn): more than 100 µM; `O=C1N(Cc2ccc3ccccc3c2)C(Cc2ccccc2)P(=O)(O)C(Cc2ccccc2)N1Cc1ccc2ccccc2c1` (racemic): 0.26 µM; `O=C1N(Cc2ccc(CBr)cc2)C(Cc2ccccc2)P(=O)(O)C(Cc2ccccc2)N1Cc1ccc(CBr)cc1` (racemic): 0.7 µM. For `O=C1N(Cc2ccc(CO)cc2)C(Cc2ccccc2)P(=O)(O)C(Cc2ccccc2)N1Cc1ccc(CO)cc1` (racemic), the midpoint of inhibition, the IC50, lay at 0.24 µM. Against the preceding compound, the IC50 is about 2.9-fold lower. On the same count and under the same terms, next, `O=C1NC(Cc2ccccc2)P(=O)(O)C(Cc2ccccc2)N1` (racemic): more than 100 µM.
